The values that follow come from patent US20110319415A1, “Susceptibility to HSP90-Inhibitors” (Universit+e,uml a+ee t zu K+e,uml o+ee ln, priority 2008, published 2011).

Where “and” joins values, the source holds several entries; their conditions need not be identical. Equal values may be shown once. Entries after “also recorded” stand apart in the source; their conditions may differ.

For series [1], the system named is c-RAF. The experiment in a line: Immunoblot of lysates of cell lines treated with 17-AAG: c-RAF. The class given is cell-based, human. As to conditions: sensitive (KRAS-mutant) cell lines. The text has this: (§1) (A) Distribution of KRAS mutations (black columns) across the 17-AAG-sensitivity profile (IC50 values) in the NSCLC cell line collection and the NCI-60 cell line panel. Incidence of KRAS mutation and sensitivity towards 17-AAG is represented by a Fisher's exact test for both datasets. (B) Lysates of a KRAS wildtype (wt) and a KRAS mutated (G12C) cell line treated with 17AAG at different concentrations were immunoblotted for c-RAF, KRAS, cyclinD1 and Akt. (C) Distribution of copy number gain at 1q21.3 (black columns) across the UO126-sensitivity profile (IC50 values) in the NSCLC cell line collection and the hypothemycin-sensitivity profile in the NCI-60 cell line panel. Incidence of amplification of 1q21.3 mutation and sensitivity towards 17-AAG is represented by a Fisher's exact test for both datasets. […]
(§2) Whole-cell lysates were prepared in NP40 lysis buffer (50 mmol/L Tris-HCl (pH 7.4). 150 mmol/L NaCl, 1% NP40) supplemented with protease and phosphatase inhibitor I and II cocktails (www.merckbiosciences.co.uk/g.asp?f=CBC/home.html) and clarified by centrifugation. Protein concentrations were determined using the Bicinchoninic Acid Protein Assay kit (www.piercenet.com) and equivalent amounts (40-60 μg) were subjected to SDS-PAGE on 12% gels, except where indicated. […]
Background: In western blotting, separated proteins are transferred to a membrane and probed.

Series [2] has as its system Akt. Put plainly: Immunoblot of lysates of cell lines treated with 17-AAG: Akt. The class given is cell-based, human. As to conditions: sensitive (KRAS-mutant) cell lines.
Source text: as §1, §2

Series [3] concerns KRAS. The experiment in a line: Immunoblot of lysates of cell lines treated with 17-AAG: KRAS. The class given is cell-based, human. As to conditions: sensitive (KRAS-mutant) cell lines.
Source text: as §1, §2

Series [4] relates to mutant KRAS bound to Hsp90. The experiment in a line: Depletion of mutant KRAS from the Hsp90 complex. The class given is cell-based. As to conditions: treatment with HSP90 inhibitor.
Series [5] concerns mutant EGFR bound to Hsp90. Put plainly: Depletion of mutant EGFR from the Hsp90 complex. As to conditions: same conditions as for KRAS. Format: cell-based.
In series [6] the test system is NSCLC cell lines. Put plainly: High-throughput cell-based screening of the NSCLC cell line collection (CellTiter-Glo viability). As to conditions: for sensitivity pattern (cytotoxic activity) across the NSCLC cell line collection: cellular viability after 96 h, cellular ATP content, entire NSCLC cell line panel.
For series [7], the system named is KRAS-driven lung adenocarcinomas. How it is done:
FIG. 20. […] Note that the images were taken from the earlier publications for illustration purposes only.
Transgenic mice (as described in FIG. 20) with KRAS-mutant lung tumors were treated with the HSP90 inhibitor 17-DMAG for seven days. Tumor volumes were determined by magnetic resonance imaging and shown as transthoracic images (left panels), quantified and changes in tumor volume relative to the pre-therapy images are given in percent.
These mice carry a Lox-Stop-Lox-KRAS_G12D gene. […] Mice received 20 mg/kg/d of 17-DMAG, a geldanamycin HSP90 inhibitor with almost identical structure as 17-AAG.

In series [8] the test system is Ba/F3 cells expressing erlotinib-sensitizing mutations of EGFR together with T790M. The experiment in a line: Growth inhibition / cytotoxicity in Ba/F3 cells expressing mutant EGFR with T790M. Format: cell-based, Murine. As to conditions: Ba/F3 with sensitizing EGFR mutation plus T790M, 96 h, cellular ATP content. As to the method:
Compounds were then added in serial dilutions.
EGFR_cDNA was subcloned into pBabe-hygro vectors.

Turning to `C=CCNC1=C2C[C@@H](C)C[C@H](OC)[C@H](O)[C@@H](C)/C=C(\C)[C@H](OC(N)=O)[C@@H](OC)/C=C\C=C(/C)C(=O)NC(=CC1=O)C2=O` [17-AAG, [(3S,5S,6R,7S,8E,10R,11S,12E,14E)-21-(allylamino)-6-hydroxy-5,11-dimethoxy-3,7,9,15-tetramethyl-16,20,22-trioxo-17-azabicyclo[16.3.1]docosa-8,12,14,18,21-pentaen-10-yl]carbamate], the “c-RAF protein levels after treatment” value in series [1] is “modulated; also recorded: reduced protein levels”. Moreover, the “Akt protein levels after treatment” value in series [2] is recorded as “modulated; also recorded: reduced protein levels”. The “KRAS protein levels after treatment” value in series [3] was “not modulated”. In addition, in series [4], the “depletion of mutant KRAS from the Hsp90 complex” value is “not depleted from the complex”. Also, the “depletion of mutant EGFR from the Hsp90 complex” value in series [5] is “depleted from the complex”. Moreover, the “sensitivity pattern (cytotoxic activity) across the NSCLC cell line collection” value (“sensitivity pattern” for short) in series [6] is “active in most of the cell lines with only a minority being resistant”.

Regarding `CO[C@H]1/C=C\C=C(/C)C(=O)NC2=CC(=O)C(NCCN(C)C)=C(C[C@@H](C)C[C@H](OC)[C@H](O)[C@@H](C)/C=C(\C)[C@@H]1OC(N)=O)C2=O` [17-DMAG, 17-NN-Dimethyl Ethylene Diamine-Geldanamycin], the “tumor burden of the third mouse” value in series [7] (20 mg/kg/d, one week of treatment, MRI imaging) is on record as “slight but insignificant reduction of tumor burden”. For the same compound, in series [7] (20 mg/kg/d, one week of treatment, MRI imaging, lox-stop-lox KRAS_G12D mice), the “mice showing tumor regression” value is 2 of 3 and 3 of 4. Besides, the duration of responses result in series [7] (lung tumor-bearing lox-stop-lox KRAS_G12D mice, one-week treatment) was “transient”. Also, the “biological effects in the cell lines compared with 17-AAG” value in series [6] (in vitro, data not shown) is recorded as “identical”.

Take `N#CC(=C(/N)Sc1ccccc1N)/C(C#N)=C(\N)Sc1ccccc1N` [U0126]: in series [6], the “sensitivity pattern” value is on record as “enhanced activity in a subset of the lung cancer cell line collection”.

In the case of `Cc1cc(Nc2cc(N3CCN(C)CC3)nc(Sc3ccc(NC(=O)C4CC4)cc3)n2)n[nH]1` [VX-680], the “sensitivity pattern” value in series [6] is listed as “pronounced cytotoxic activity in a small subset of cell lines”.

`C#Cc1cccc(Nc2ncnc3cc(OCCOC)c(OCCOC)cc23)c1` [erlotinib]: the “sensitivity pattern” value in series [6] is given as “pronounced cytotoxic activity in a small subset of cell lines”.

With `COc1cc2c(Nc3ccc(Br)cc3F)ncnc2cc1OCC1CCN(C)CC1` [vandetanib], the “activity / cytotoxicity in Ba/F3 cells expressing the T790M resistance allele” value is listed as “completely resistant” in series [8] and “lack of activity” in series [8] (listed as Vandatinib). Further, in series [6], the “sensitivity pattern” value is “pronounced cytotoxic activity in a small subset of cell lines”.
